From patent US20110268711A1, “PANCREATIC STELLATE CELL SPECIFIC PROMOTER AND USES THEREOF” (AGENCY FOR SCIENCE, TECHNOLOGY AND RESEARCH, priority 2007, published 2011)
Entries after “also recorded” stand apart in the source; their conditions may differ. Where two headings read alike, the source gives them in different places.

B1: PDGF-BB: recombinant platelet derived growth factor-BB from R&D (protein, UniProt P01127 82-190, looked up)
Platelet-derived growth …: SLGSLTIAEPAMIAECKTRTEVFEISRRLIDRTNANFLVWPPCVEVQRCSGCCNNRNVQCRPTQVQLRPVQVRKIEIVRKKPIFKKATVTLEDHLACKCETVAAARPVT

Tested on: 2.2-kb hGFAP promoter (GFAP-LacZ transgene) in SAM-K cells
Assay type: cell-based
Conditions: for decrease of relative β-Gal activity / decrease in β-Gal activity: vs 0.2% DMSO control; for decrease in β-Gal activity: kinase inhibitor 10 μM; for induction of GFAP-lacZ transgene expression (β-Gal activity) by exogenous cytokines: TGF-β 1 and 10 ng/ml, PDGF-BB 10 ng/ml, TNF-α 10 ng/ml, 24, 32, 48 and 60 hours after treatment
Procedure: Transfection and isolation of stable cell lines: The 2.2-kb hGFAP-LacZ (Maubach, G., et al., World J Gastroenterol, 2006, 12(5): 723-30) or the 2.2-kb hGFAP-DsRed plasmid was used to transfect PSC lines, using LIPOFECTAMINE™ 2000 (Invitrogen, CA, USA) according to the manufacturer's instructions. DsRed expression was identified under fluorescence microscope (Leica, Wetzlar, Germany). To isolate the stable clones expressing GFAPLacZ in SAM-K cell line, 24 hours after transfection, the cell culture medium was changed into medium containing Zeocin (500 μg/ml, Invitrogen, CA, USA). The single clones were isolated by dilution in the 96 well plates, the positive β-galactosidase (β-Gal) clones were identified by β-Gal staining kit from Invitrogen (CA, USA). Stable clones were maintained in culture medium containing 250 μg/ml Zeocin.
Treatment of PSCs with cell signaling inhibitors: Before treatment with different factors, SAM-K cells stably expressing the GFAP-LacZ at 70-80% confluence were starved in 0.5% FBS overnight, TGF-β (1 ng/ml, 10 ng/ml), PDBF-BB (10 ng/ml), and TNF-α (10 ng/ml) treatments were carried out at different time points, PBS buffer (0.2%) treatment served as control. Kinase inhibitors (10 μM), including LY 294002, U0126, SP600125, SB 203580, retinol and its metabolites, including retinol, 9-RA, ATRA, were applied to the cell culture medium at both 2 μM and 5 μM concentrations. Treatment in 0.2% DMSO served as control. The transgenic β-Gal activity was quantified at various times following treatment.
To obtain cryostat sections, the pancreas was removed from both GFAP-LacZ transgenic mouse and wild type mouse of the same FVB/N genetic background, and were fixed in 4% PFA fixative for 30 minutes. The fixed tissues were infiltrated overnight with 30% sucrose. Small pieces of tissue were mounted in OCT medium, and 14-μm sections were collected onto POLYSINE™ slides (Menzel GmbH & Co KG, Braunschweig, Germany). The expression of lacZ gene was detected using a staining kit from Invitrogen. The sections were stained with X-gal substrate overnight at room temperature, and subsequently counter-stained with eosin, prior to being mounted on slides with HYDROMOUNT™ (National diagnostics, Georgia, USA). To quantify the GFAP-LacZ expression, the β-Gal activity in the total cell extracts was measured with an enzymatic assay kit (Promega, WI, USA).
Statistical analysis: All quantitative results were presented as mean±SE; data were analyzed with Student t-test.

Molecule | decrease of relative β-Gal activity (2 μM, 24 hours after treatment) | decrease of relative β-Gal activity (2 μM, 48 hours after treatment) | decrease of relative β-Gal activity (5 μM, 24 hours after treatment) | decrease of relative β-Gal activity (5 μM, 48 hours after treatment) | decrease in β-Gal activity (24 hours after treatment) | decrease in β-Gal activity (48 hours after treatment) | induction of GFAP-lacZ transgene expression (β-Gal activity) by exogenous cytokines
CC1=C(/C=C/C(C)=C\C=C\C(C)=C\C(=O)O)C(C)(C)CCC1 [9-RA, 9-cis retinoic acid] | about 44% | 37% | about 48% | about 46% |  |  | 
CC1=C(/C=C/C(C)=C/C=C/C(C)=C/C(=O)O)C(C)(C)CCC1 [ATRA, all-trans retinoic acid] | ~42% | 33% | ~42% | ~31% |  |  | 
O=c1cc(N2CCOCC2)oc2c(-c3ccccc3)cccc12 [LY 294002] |  |  |  |  | ~19% | about 15% | 
C[S+]([O-])c1ccc(-c2nc(-c3ccncc3)c(-c3ccc(F)cc3)[nH]2)cc1 (centres unmarked) [SB 203580] |  |  |  |  | not as significant | no significant effects | 
Oc1c2ccccc2c2c3c(cccc13)N=N2 [SP 600125] |  |  |  |  | about 25% | about 10% | 
N#CC(=C(/N)Sc1ccccc1N)/C(C#N)=C(\N)Sc1ccccc1N [U0126] |  |  |  |  | approximately 40% | about 15% | 
CC1=C(/C=C/C(C)=C/C=C/C(C)=C/CO)C(C)(C)CCC1 [retinol] | ~33% | 49% | ~38% | about 48% |  |  | 
TGF-β: recombinant TGF-β1 from R&D, pro-fibrogenic cytokine |  |  |  |  |  |  | None of the treatments specifically induced transgene expression; also recorded: No significant change in enzymatic activity
TNF-α |  |  |  |  |  |  | None of the treatments specifically induced transgene expression; also recorded: No significant change in enzymatic activity
B1 |  |  |  |  |  |  | None of the treatments specifically induced transgene expression; also recorded: No significant change in enzymatic activity
